ChEMBL document CHEMBL5247647, “Phenothiazine-Based LSD1 Inhibitor Promotes T-Cell Killing Response of Gastric Cancer Cells” (J Med Chem, 2023)
Activity calls are given as the source filed them. The calls are words filed in the database; no cut-off is given here.

Tests used:
MFC [1] = experiment: Antitumor activity against mouse MFC cells xenografted in 615 mouse assessed as tumor growth suppression at 10 to 50 mg/kg, po for 14 days; type: functional, organism-based; conditions: dose 10-50 mg/kg, time 14.0 day
[2] = Toxicity against 615 mouse xenografted with mouse MFC cells in assessed as pathological changes in spleen at 10 to 50 mg/kg, po for 14 days by Hematoxylin and Eosin staining based microscopic analysis; type: organism-based; conditions: in vivo, 336 h, dose 10-50 mg/kg, time 14 day
[3] = Toxicity against 615 mouse xenografted with mouse MFC cells in assessed as body weight change in tumor at 10 to 50 mg/kg, po for 14 days; type: organism-based; conditions: in vivo, 336 h, dose 10-50 mg/kg, time 14 day
BGC-823 [4] = experiment: Downregulation of PD-L1 mRNA expression in human BGC-823 cells at 5 to 5 to 20 uM incubated for 5 days; type: functional, cell-based; conditions: dose 5-20 µM, time 5.0 day
MFC [5] = experiment: Antitumor activity against mouse MFC cells xenografted in 615 mouse assessed as increase in IFNgamma mRNA expression level in tumor at 10 to 50 mg/kg, po for 14 days; type: functional, organism-based; conditions: dose 10-50 mg/kg, time 14.0 day
MFC [6] = experiment: Antitumor activity against mouse MFC cells xenografted in 615 mouse assessed as increase in infiltration of CD3+ T cells into tumor at 10 to 50 mg/kg, po for 14 days by immunohistochemistry; type: functional, organism-based; conditions: dose 10-50 mg/kg, time 14.0 day
MFC [7] = experiment: Downregulation of PD-L1 expression in mouse LSD1 knockout MFC cells at 5 to 20 uM incubated for 5 days by Western blot anlaysis; type: functional, cell-based; conditions: dose 5-20 µM, time 5.0 day
MFC [8] = experiment: Downregulation of PD-L1 expression in mouse MFC cells at 5 to 20 uM incubated for 5 days by Western blot anlaysis; type: functional, cell-based; conditions: dose 5-20 µM, time 5.0 day
MFC [9] = experiment: Antitumor activity against mouse MFC cells xenografted in 615 mouse assessed as increase in IL-2 expression level in tumor at 10 to 50 mg/kg, po for 14 days by ELISA; type: functional, organism-based; conditions: dose 10-50 mg/kg, time 14.0 day
BGC-823 [10] = experiment: Downregulation of PD-L1 expression in human LSD1 knockout BGC-823 cells transfected with […] K661A mutant plasmid at 20 uM incubated for 5 days by Western blot anlaysis; type: functional, cell-based; conditions: time 5.0 day
MFC [11] = experiment: Antitumor activity against mouse MFC cells xenografted in 615 mouse assessed as decrease in Ki67 expression in tumor at 10 to 50 mg/kg, po for 14 days by immunohistochemistry; type: functional, organism-based; conditions: dose 10-50 mg/kg, time 14.0 day
[12] = target: Lysine-specific histone demethylase 1A (Homo sapiens, UniProt O60341); experiment: Inhibition of human LSD1 in human BGC-823 cells assessed as inhibition of H3K4me2 demethylation at 5 to 20 uM incubated for 5 days by Western blot anlaysis; type: cell-based; conditions: dose 5-20 µM, time 5.0 day
BGC-823 [13] = experiment: Antiproliferative activity against human BGC-823 cells assessed as inhibition of cell proliferation incubated for 48 hrs by SRB assay; type: functional, cell-based
BGC-823 [14] = experiment: Anticancer activity against human BGC-823 cells assessed as increase in CD3/CD28 activated T-cell killing response at 5 to 20 uM incubated for 5 days by DAPI staining based assay; type: functional; conditions: dose 5-20 µM, time 5.0 day
MFC [15] = experiment: Downregulation of PD-L1 expression in mouse MFC cell membrane at 5 to 20 uM incubated for 5 days by Western blot anlaysis; type: functional, cell membranes; conditions: dose 5-20 µM, time 5.0 day
MFC [16] = experiment: Antitumor activity against mouse MFC cells xenografted in 615 mouse assessed as increase in IL-2 mRNA expression level in tumor at 10 to 50 mg/kg, po for 14 days; type: functional, organism-based; conditions: dose 10-50 mg/kg, time 14.0 day
BGC-823 [17] = experiment: Anticancer activity against human BGC-823 cells assessed as increase in CD3/CD28 activated T-cell killing response by measuring TNFalpha level at 5 to 20 uM incubated for 5 days by Sandwich ELISA; type: functional, cell-based; conditions: dose 5-20 µM, time 5.0 day
BGC-823 [18] = experiment: Downregulation of PD-L1 expression in human LSD1 knockout BGC-823 cells transfected with wild type LSD1 plasmid at 20 uM incubated for 5 days by Western blot anlaysis; type: functional, cell-based; conditions: time 5.0 day
[19] = Toxicity against 615 mouse xenografted with mouse MFC cells in assessed as pathological changes in liver at 10 to 50 mg/kg, po for 14 days by Hematoxylin and Eosin staining based microscopic analysis; type: organism-based; conditions: in vivo, 336 h, dose 10-50 mg/kg, time 14 day
[20] = Toxicity against 615 mouse xenografted with mouse MFC cells in assessed as pathological changes in kidney at 10 to 50 mg/kg, po for 14 days by Hematoxylin and Eosin staining based microscopic analysis; type: organism-based; conditions: in vivo, 336 h, dose 10-50 mg/kg, time 14 day
BGC-823 [21] = experiment: Anticancer activity against human BGC-823 cells assessed as increase in CD3/CD28 activated T-cell killing response by measuring IFNgamma level at 5 to 20 uM incubated for 5 days by Sandwich ELISA; type: functional, cell-based; conditions: dose 5-20 µM, time 5.0 day
MFC [22] = experiment: Antiproliferative activity against mouse MFC cells assessed as inhibition of cell proliferation incubated for 48 hrs by SRB assay; type: functional, cell-based

inhibition [12]: Active
Compound: c1ccc2c(c1)Sc1ccccc1N2CCN1CCOCC1
Activity (MFC [1]): Dose-Dependent Effect
Activity [2]: Non-Toxic
Activity [3]: Non-Toxic
Activity (BGC-823 [4]): Dose-Dependent Effect
Activity (MFC [5]): Active
Activity (MFC [6]): Active
Activity (MFC [7]): inactive
Activity (MFC [8]): Dose-Dependent Effect
Activity (MFC [9]): Active
Activity (BGC-823 [10]): inactive
Activity (MFC [11]): Active
Activity (BGC-823 [13]): inactive
Activity (BGC-823 [14]): Dose-Dependent Effect
Activity (MFC [15]): Dose-Dependent Effect
Activity (MFC [16]): Active
Activity (BGC-823 [17]): Active
Activity (BGC-823 [18]): Active
Activity [19]: Non-Toxic
Activity [20]: Non-Toxic
Activity (BGC-823 [21]): Active
Activity (MFC [22]): inactive
